Measurements from US10363239B2, “Method for inhibiting growth of cancer cells” (Pain Therapeutics, Inc., priority 2013, dated 2019).
Where two headings read alike, the source gives them in different places.

Experiments:
[1] = target: FLNA pentapeptide of SEQ ID NO: 1 (Bn-VAKGL) (Homo sapiens, UniProt P21333); assay: FITC-NLX-based FLNA screening assay (inhibition of FITC-naloxone binding to Bn-VAKGL on streptavidin plates); details: 10 nM FITC-NLX
mu opiate receptor (MOR) = assay: MOR agonist activity using [35S]GTPγS binding assay in striatal membranes; type: biochemical; details: for MOR agonist activity ([35S]GTPγS binding), FLNA-Binding Compound as Agonist 1 μM + BFNA: 1 μM compound + 1 μM β-funaltrexamine
Procedure, shortened: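 Striatal membranes (200 μg) were preincubated 5 min at 30 °C in HEPES pH 7.5 with 100 mM NaCl, 1 mM MgCl2 and 0.5 nM [35S]GTPγS, then 5 min more with 0.1–10 μM compound. Gαo was immunoprecipitated and bound radioactivity counted by scintillation.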

[2] = read-out: Percent Binding Inhibition, FLNA-binding compound 0.01 μM
[3] = read-out: Percent Binding Inhibition, FLNA-binding compound 0.1 μM
[4] = read-out: Percent Binding Inhibition, FLNA-binding compound 1 μM
[5] = Series B, 0.1 μM compound, relative to DAMGO
[6] = Series B, 0.1 μM compound, [35S]GTPγS binding to Gαo, striatal membranes
[7] = Series B, 1 μM compound + 1 μM β-FNA
[8] = Series B, 1 μM compound + β-FNA, relative to DAMGO + BFNA
[9] = Series B, 1 μM compound, relative to DAMGO
[10] = Series B, 1 μM compound, [35S]GTPγS binding to Gαo, striatal membranes
[11] = Series C-1, 0.1 μM compound, relative to DAMGO
[12] = Series C-1, 0.1 μM compound, [35S]GTPγS binding to Gαo, striatal membranes
[13] = Series C-1, 1 μM compound + 1 μM β-FNA
[14] = Series C-1, 1 μM compound + β-FNA, relative to DAMGO + BFNA
[15] = Series C-1, 1 μM compound, relative to DAMGO
[16] = Series C-1, 1 μM compound, [35S]GTPγS binding to Gαo, striatal membranes
[17] = Series C-2, 0.1 μM compound, relative to DAMGO
[18] = Series C-2, 0.1 μM compound, [35S]GTPγS binding to Gαo, striatal membranes
[19] = Series C-2, 1 μM compound + 1 μM β-FNA
[20] = Series C-2, 1 μM compound + β-FNA, relative to DAMGO + BFNA
[21] = Series C-2, 1 μM compound, relative to DAMGO
[22] = Series C-2, 1 μM compound, [35S]GTPγS binding to Gαo, striatal membranes
[23] = 0.1 μM compound relative to DAMGO
[24] = 1 μM compound + BFNA relative to DAMGO + BFNA
[25] = 1 μM compound relative to DAMGO
[26] = FLNA-binding compound 0.01 μM, read-out: Percent Binding Inhibition
[27] = FLNA-binding compound 0.1 μM, read-out: Percent Binding Inhibition
[28] = FLNA-binding compound 1 μM, read-out: Percent Binding Inhibition

SMILES: COc1c2c(cc3c1C(CC(=O)CCc1ccc(O)cc1)[N+](C)(C)CC3)OCO2 (stereo not drawn) [Compound B0028]
- inhibition at 0.01 µM [1, 2]: 38.2%
- inhibition at 0.1 µM [1, 3]: 42.8%
- inhibition at 1 µM [1, 4]: 49.1%
- % DAMGO (0.1 μM) (mu opiate receptor (MOR); [5]): 103.5%
- MOR agonist activity, percent [35S]GTPγS binding at the stated compound concentration (mu opiate receptor (MOR); [6]): 199.1%
- MOR agonist activity, percent [35S]GTPγS binding at the stated compound concentration (mu opiate receptor (MOR); [7]): 55.0%
- % DAMGO + BFNA (mu opiate receptor (MOR); [8]): 125.3%
- % DAMGO (1 μM) (mu opiate receptor (MOR); [9]): 131.0%
- MOR agonist activity, percent [35S]GTPγS binding at the stated compound concentration (mu opiate receptor (MOR); [10]): 357.7%

SMILES: O=S(=O)(c1cccc(OC(F)(F)F)c1)N1CCC2(CC1)OCCN2S(=O)(=O)c1cccc(OC(F)(F)F)c1 [Compound C0005]
- inhibition at 0.01 µM [1, 2]: 35.2%
- inhibition at 0.1 µM [1, 3]: 44.5%
- inhibition at 1 µM [1, 4]: 51.5%
- % DAMGO (0.1 μM) (mu opiate receptor (MOR); [11]): 105.4%
- Concentration of FLNA-Binding Compound as Agonist 0.1 μM (mu opiate receptor (MOR); [12]): 180.4%
- Concentration of FLNA-Binding Compound as Agonist 1 μM + BFNA (mu opiate receptor (MOR); [13]): 166.4%
- % DAMGO + BFNA (mu opiate receptor (MOR); [14]): 319.4%
- % DAMGO (1 μM) (mu opiate receptor (MOR); [15]): 85.1%
- Concentration of FLNA-Binding Compound as Agonist 1 μM (mu opiate receptor (MOR); [16]): 227.2%

SMILES: CN1CCC2(CC1)NCC(=O)N2Cc1ccccc1 [Compound C0105M]
- inhibition at 0.01 µM [1, 2]: 55.7%
- inhibition at 0.1 µM [1, 3]: 62%
- inhibition at 1 µM [1, 4]: 68.8%
- % DAMGO (0.1 μM) (mu opiate receptor (MOR); [17]): 104.7%
- MOR agonist activity, percent [35S]GTPγS binding at the stated compound concentration (mu opiate receptor (MOR); [18]): 198.1%
- MOR agonist activity, percent [35S]GTPγS binding at the stated compound concentration (mu opiate receptor (MOR); [19]): 73.1%
- % DAMGO + BFNA (mu opiate receptor (MOR); [20]): 150.7%
- % DAMGO (1 μM) (mu opiate receptor (MOR); [21]): 88.8%
- MOR agonist activity, percent [35S]GTPγS binding at the stated compound concentration (mu opiate receptor (MOR); [22]): 220.3%

SMILES: CC1CCC(C(C)C)C(OCC(O)CN2CCCC2)C1 (stereo not drawn) [Compound A0001]
- inhibition at 0.01 µM [1, 2]: 39.7%
- inhibition at 0.1 µM [1, 3]: 45.6%
- inhibition at 1 µM [1, 4]: 52.4%
- MOR agonist activity ([35S]GTPγS binding), FLNA-Binding Compound as Agonist 0.1 μM (mu opiate receptor (MOR); 0.1 μM compound): 94.3%
- % DAMGO (0.1 μM) (mu opiate receptor (MOR); [23]): 63.1%
- MOR agonist activity ([35S]GTPγS binding), FLNA-Binding Compound as Agonist 1 μM (mu opiate receptor (MOR); 1 μM compound): 181.7%
- MOR agonist activity ([35S]GTPγS binding), FLNA-Binding Compound as Agonist 1 μM + BFNA (mu opiate receptor (MOR)): 22.2%
- % DAMGO + BFNA (mu opiate receptor (MOR); [24]): 83.8%
- % DAMGO (1 μM) (mu opiate receptor (MOR); [25]): 78.9%

SMILES: COc1cccc(OC)c1C(=O)CC1c2c(cc3c(c2OC)OCO3)CC[N+]1(C)C (stereo not drawn) [Compound B0023]
- inhibition at 0.01 µM [1, 2]: 28.5%
- inhibition at 0.1 µM [1, 3]: 37.8%
- inhibition at 1 µM [1, 4]: 46.4%
- % DAMGO (0.1 μM) (mu opiate receptor (MOR); [5]): 99.4%
- MOR agonist activity, percent [35S]GTPγS binding at the stated compound concentration (mu opiate receptor (MOR); [6]): 166.1%
- MOR agonist activity, percent [35S]GTPγS binding at the stated compound concentration (mu opiate receptor (MOR); [7]): 28.4%
- % DAMGO + BFNA (mu opiate receptor (MOR); [8]): 81.8%
- % DAMGO (1 μM) (mu opiate receptor (MOR); [9]): 100.1%
- MOR agonist activity, percent [35S]GTPγS binding at the stated compound concentration (mu opiate receptor (MOR); [10]): 245.3%

SMILES: CC(=O)c1ccc(S(=O)(=O)N2CCC3(CC2)NCCS3)cc1 [Compound C0060]
- inhibition at 0.01 µM [1, 26]: 60.3%
- inhibition at 0.1 µM [1, 27]: 64%
- inhibition at 1 µM [1, 28]: 68%
- % DAMGO (0.1 μM) (mu opiate receptor (MOR); [17]): 114.8%
- MOR agonist activity, percent [35S]GTPγS binding at the stated compound concentration (mu opiate receptor (MOR); [18]): 166.5%
- MOR agonist activity, percent [35S]GTPγS binding at the stated compound concentration (mu opiate receptor (MOR); [19]): 143.9%
- % DAMGO + BFNA (mu opiate receptor (MOR); [20]): 327.0%
- % DAMGO (1 μM) (mu opiate receptor (MOR); [21]): 93.9%
- MOR agonist activity, percent [35S]GTPγS binding at the stated compound concentration (mu opiate receptor (MOR); [22]): 218.9%

SMILES: O=S(=O)(c1cccs1)N1CCC2(CC1)OCCN2S(=O)(=O)c1cccs1 [Compound C0141M]
- inhibition at 0.01 µM [1, 2]: 33.1%
- inhibition at 0.1 µM [1, 3]: 39%
- inhibition at 1 µM [1, 4]: 46.9%
- % DAMGO (0.1 μM) (mu opiate receptor (MOR); [11]): 109.9%
- Concentration of FLNA-Binding Compound as Agonist 0.1 μM (mu opiate receptor (MOR); [12]): 161.5%
- Concentration of FLNA-Binding Compound as Agonist 1 μM + BFNA (mu opiate receptor (MOR); [13]): 47.9%
- % DAMGO + BFNA (mu opiate receptor (MOR); [14]): 121.9%
- % DAMGO (1 μM) (mu opiate receptor (MOR); [15]): 105.8%
- Concentration of FLNA-Binding Compound as Agonist 1 μM (mu opiate receptor (MOR); [16]): 213.9%

SMILES: CC1CN(CC(O)COc2cccc(C(F)(F)F)c2)CC(C)O1 (stereo not drawn) [Compound A0051]
- inhibition at 0.01 µM [1, 26]: 45.9%
- inhibition at 0.1 µM [1, 27]: 45.4%
- inhibition at 1 µM [1, 28]: 52.1%
- MOR agonist activity ([35S]GTPγS binding), FLNA-Binding Compound as Agonist 0.1 μM (mu opiate receptor (MOR); 0.1 μM compound): 290.4%
- % DAMGO (0.1 μM) (mu opiate receptor (MOR); [23]): 148.0%
- MOR agonist activity ([35S]GTPγS binding), FLNA-Binding Compound as Agonist 1 μM (mu opiate receptor (MOR); 1 μM compound): 386.6%
- MOR agonist activity ([35S]GTPγS binding), FLNA-Binding Compound as Agonist 1 μM + BFNA (mu opiate receptor (MOR)): 211.6%
- % DAMGO + BFNA (mu opiate receptor (MOR); [24]): 286.3%
- % DAMGO (1 μM) (mu opiate receptor (MOR); [25]): 140.1%
